US20110002877A1, “PTEN Inhibitors Treat Neutropenia-Associated Pneumonia” (priority 2009, published 2011)

System: circulating neutrophils
Conditions: day 5; two i.p. injections, total 250 mg/kg (150 mg/kg day 1, 100 mg/kg day 4)
From the text: We first examined neutrophil recruitment and its bacteria-killing capability under neutropenic conditions. We induced neutropenia using a widely used chemotherapeutic drug, cyclophosphamide (Cy), which is used primarily to treat cancer.
We also examined neutrophil recruitment and its bacteria-killing capability under neutropenic conditions. We induced neutropenia using a widely used chemotherapeutic drug, cyclophosphamide (Cy).

## O=P1(N(CCCl)CCCl)NCCCO1 (stereo not shown) [Cy, cyclophosphamide]
  fewer circulating neutrophils than the untreated group: approximately 90%
